{
  "source": "paper PMC6271218",
  "about": "“Pharmacokinetics, Tissue Distribution and Excretion of Verticinone from F. hupehensis in Rats” (Molecules, 2014)",
  "key": {"[1]": {"assay": "Plasma pharmacokinetics after i.v. administration", "assay_type": "in vivo, SD rats", "settings": "for AUC(0-inf) / AUC(0-t) / MRT last: SD, rat, plasma, iv; for AUC(0-inf) / AUC(0-t) / MRT last / Vz/F: i.v. 0.4 mg/kg; for MRT last: read-out: MRT0–t", "description": "(§1) Pharmacokinetic studies of verticinone after intravenous (i.v.) and intragastrical (i.g.) administration to rats were designed to determine pharmacokinetic parameters and absolute bioavailability. For i.g administration, verticinone was suspended in 0.5% carboxymethyl cellulose sodium (CMC-Na) to final concentrations of 0.2, 0.4 and 0.8 mg/mL. Verticinone was dissolved in 20% ethanol/80% water to final concentration of 0.08 mg/mL for i.v. administration. For the i.v. group, five male and five female rats received a single dose of 0.4 mg/kg. Blood samples (0.25 mL) were obtained at 0, 4, 15, 30, 45, 60, 120, 240, 360, 480, 600 and 720 min after injection. For the single- i.g. group, fifteen male and fifteen female rats were divided into three groups, and each group received a single oral dose of 1, 2 and 4 mg/kg of verticinone, respectively. In addition, another five male and five female rats received multiple oral doses of 4 mg/kg/day, given as 2 mg/kg doses twice a day (one dose in the morning and the second dose 12 h later) for 7 days, then a single oral dose of 2 mg/kg on the eighth day. Blood samples (0.25 mL) were obtained at 0, 5, 15, 30, 45, 60, 90, 120, 240, 360, 480 and 720 min for male rats and at 0, 5, 10, 20, 30, 45, 60, 120, 240, 360, 480 and 720 min for female rats after oral administration (the eighth day for multiple-dose group). Blood samples were then centrifuged at 4000 rpm for 10 min, and the plasma was collected. All plasma samples were frozen and stored at −20 °C until analysis. Verticinone was isolated from plasma by liquid-liquid extraction according to our previously reported procedure.\n(§2) The quantification of verticinone was performed by a LC-MS method based on the previously reported method with slight modifications. The liquid chromatography system consisted of a model 2010 chromatograph (Shimadzu, Kyoto, Japan) equipped with a Shim-Pack VP-ODS C18 column (150 mm × 2.0 mm, 5 μm). A Shimadzu 2010 mass spectrometer (Q-array-Octapole-Quadrupole mass analyzer) equipped with an electrospray ionization interface was used for MS detection. The mobile phase consisted of (A) distilled water and (B) methanol, and the flow rate was 0.2 mL/min. Chromatography separation was achieved using a gradient elution program, as follows: 0.03→6.0 min, B% 15→85; 6.0→7.0 min, B% 85→85; 7.0→8.0 min, B% 85→15; 8.0–12.0 min, B% 15→15. The column and autosampler tray temperature were kept constant at 35 °C and 20 °C, respectively. For the determination of verticinone, the positive mode was selected, along with the conditions as follows.\n(§3) CDL voltage […], probe voltage 4.5 kV, CDL temperature 250 °C, block temperature 200 °C, gas flow 1.5 L/min. Hupehenine was used as the internal standard (IS). Both verticinone and IS were detected using selected ion monitoring (SIM) at m/z 430.25 for verticinone and m/z 416.30 for hupehenine (IS), with a dwell time of 200 ms. Blank plasma, tissue homogenate, urine, feces homogenate and bile were used to prepare the corresponding calibration curves to avoid different matrix effects.\n(§4) The pharmacokinetic parameters were calculated by the DAS 2.0 software (Chinese Pharmacological Association, Beijing, China) using a standard non-compartmental method. The Cmax and Tmax were determined from the observed data. The elimination rate constant (ke) was calculated by log-linear regression of verticinone concentrations during the terminal elimination phase and the half-life (t1/2) was calculated as 0.693/ke. The AUC0–t was calculated by the linear trapezoidal method. The AUC0–∞ was calculated as the sum of AUC0–t and the extrapolated part determined by Clast/ke. The total clearance (CL) was calculated as dose/AUC0–∞. The absolute bioavailability (F) was calculated by the following equation: F = [(AUCi.g./AUCi.v.) × (Dosei.v./Dosei.g.)] × 100%. The results were expressed as mean ± SD. Statistical analyses were performed using an unpaired Student’s t-test."}, "[2]": {"assay": "Multiple-dose (successive i.g.) plasma pharmacokinetics", "assay_type": "in vivo, SD rats", "settings": "for Cmax / AUC(0-inf) / AUC(0-t) / Tmax / MRT last / Vd/F / half-life: SD, rat, plasma, po; for MRT last: read-out: MRT0–t; for Vd/F: read-out: Vz/F; for half-life: read-out: t1/2z (converted)", "description": "as §1, §2, §3, §4"}, "[3]": {"assay": "Plasma protein binding in vitro by ultrafiltration, rat plasma", "assay_type": "in vitro ADME, rats", "description": "The ability of verticinone to bind to plasma protein was determined by the ultrafiltration method. A Centrifree Micropartition device (Millipore, Beverly, MA, USA) was used to separate unbound and bound verticinone. Verticinone of different concentrations were added into blank rat and human plasma to give final concentrations at 5, 30 and 100 ng/mL. The spiked plasma was incubated for 30 min at 37 °C and an aliquot (100 μL) was analyzed by previously described methods to determine the total concentration of verticinone. The ultrafiltrate was obtained by centrifuging at 14,000 rpm for 10 min. The concentration of unbound verticinone in filtrate was similarly determined by the previously described methods. The percentage of free fraction (p) of verticinone was calculated as follow: p = (concentration of verticinone in ultrafiltrate/concentration of verticinone in original spiked plasma sample) × 100%."}, "[4]": {"settings": "successive i.g. 2 mg/kg, female rats"}, "[5]": {"settings": "successive i.g. 2 mg/kg, male rats"}},
  "note": "Read-outs that look alike come from different tables or passages of the source.",
  "data": [
    {"smiles": "C[C@H]1CC[C@@H]2N(C1)C[C@H]1[C@@H]3C[C@H]4[C@@H](CC(=O)[C@H]5C[C@@H](O)CC[C@@]54C)[C@@H]3CC[C@@H]1[C@]2(C)O", "note": "[verticinone, Verticinone]", "values": [
      {"measurement": "AUC(0-inf)", "setting": "[1]; female rats", "result": "98.9 ± 35.8", "unit": "ng·h/mL"},
      {"measurement": "AUC(0-t)", "setting": "[1]; female rats", "result": "65.6 ± 7.03", "unit": "ng·h/mL"},
      {"measurement": "MRT last", "setting": "[1]; female rats", "result": "2.04 ± 0.34", "unit": "h"},
      {"measurement": "AUC(0-inf)", "setting": "[1]; male rats", "result": "168 ± 23", "unit": "ng·h/mL"},
      {"measurement": "AUC(0-t)", "setting": "[1]; male rats", "result": "160 ± 20.2", "unit": "ng·h/mL"},
      {"measurement": "MRT last", "setting": "[1]; male rats", "result": "2.37 ± 0.14", "unit": "h"},
      {"measurement": "Vz/F", "setting": "[1]; female rats", "result": "82.5 ± 70.3", "unit": "L/kg"},
      {"measurement": "Vz/F", "setting": "[1]; male rats", "result": "10.9 ± 1.56", "unit": "L/kg"},
      {"measurement": "Exposure, fold higher in male rats than in female rats", "setting": "[1]; i.v. dose 0.4 mg/kg", "result": 2.4, "unit": "fold"},
      {"measurement": "Cmax", "setting": "[2]; successive i.g. 2 mg/kg (twice a day for 7 days, then single dose on eighth day), female rats", "result": "19.9 ± 14", "unit": "ng/mL"},
      {"measurement": "AUC(0-inf)", "setting": "[2]; [4]", "result": "43.4 ± 12", "unit": "ng·h/mL"},
      {"measurement": "AUC(0-t)", "setting": "[2]; [4]", "result": "36.1 ± 15.2", "unit": "ng·h/mL"},
      {"measurement": "Tmax", "setting": "[2]; [4]", "result": "0.38 ± 0.22", "unit": "h"},
      {"measurement": "MRT last", "setting": "[2]; [4]", "result": "2.24 ± 0.28", "unit": "h"},
      {"measurement": "Vd/F", "setting": "[2]; [4]", "result": "485 ± 499", "unit": "L/kg"},
      {"measurement": "half-life", "setting": "[2]; [4]", "result": "5.94 ± 4.84", "unit": "h"},
      {"measurement": "AUC(0-inf)", "setting": "[2]; [5]", "result": "455 ± 125", "unit": "ng·h/mL"},
      {"measurement": "AUC(0-t)", "setting": "[2]; [5]", "result": "439 ± 126", "unit": "ng·h/mL"},
      {"measurement": "Cmax", "setting": "[2]; [5]", "result": "119 ± 26.8", "unit": "ng/mL"},
      {"measurement": "Tmax", "setting": "[2]; [5]", "result": "0.8 ± 0.21", "unit": "h"},
      {"measurement": "MRT last", "setting": "[2]; [5]", "result": "2.98 ± 0.3", "unit": "h"},
      {"measurement": "Vd/F", "setting": "[2]; [5]", "result": "13.8 ± 4.07", "unit": "L/kg"},
      {"measurement": "half-life", "setting": "[2]; [5]", "result": "2.08 ± 0.51", "unit": "h"},
      {"measurement": "AUC, fold higher after successive i.g. than single i.g.", "setting": "[2]; female rats, 2 mg/kg", "result": "approximately 2 fold"},
      {"measurement": "CL, fold lower after successive i.g. than single i.g.", "setting": "[2]; female rats, 2 mg/kg", "result": 2, "unit": "fold"},
      {"measurement": "Cmax, fold higher after successive i.g. than single i.g.", "setting": "[2]; female rats, 2 mg/kg", "result": "approximately 2 fold"},
      {"measurement": "fraction unbound at 30 min, 5 ng/mL", "setting": "[3]; rat plasma, 5 ng/mL, ultrafiltration, n = 4, read-out: Protein binding rates (%) (converted)", "result": 0.087},
      {"measurement": "fraction unbound at 30 min, 30 ng/mL", "setting": "[3]; rat plasma, 30 ng/mL, ultrafiltration, n = 4, read-out: Protein binding rates (%)", "result": 0.09},
      {"measurement": "fraction unbound at 30 min, 100 ng/mL", "setting": "[3]; rat plasma, 100 ng/mL, ultrafiltration, n = 4, read-out: Protein binding rates (%) (converted)", "result": 0.102},
      {"measurement": "fraction unbound at 30 min", "setting": "[3]; rat, plasma, rats, concentration range 5~100 ng/mL", "result": "0.087 to 0.102"}
    ]}
  ]
}
